According to ChEMBL document CHEMBL3352394, “Acinetobacter baumannii OxPhos inhibitors as selective anti-infective agents” (Bioorg Med Chem Lett, 2015):
Values after ≈ are worked out from the molar mass of the structure shown. Active and inactive are the calls of the source. The rule behind the calls is not given here.

Tests used:
[1] = Inhibition of Electron transport protein complex-dependent oxidative phosphorylation system-mediated ATP synthesis in Acinetobacter baumannii membranes; type: cell membranes
[2] = Inhibition of Electron transport protein complex-dependent oxidative phosphorylation system-mediated ATP synthesis in bovine heart submitochondrial particle; parameters: species or system Bos taurus
[3] = Selectivity ratio of IC50 for oxidative phosphorylation system-mediated ATP synthesis in bovine heart submitochondrial particle to IC50 for oxidative phosphorylation system-mediated ATP synthesis in Acinetobacter baumannii membranes; type: cell membranes
Acinetobacter baumannii [4] = experiment: Antimicrobial activity against Acinetobacter baumannii; type: functional
[5] = Cytotoxicity against mouse NIH/3T3 cells after 1 hr by MTS reduction assay in absence of serum; type: cell-based; conditions: NIH3T3, 1 h
HepG2 = experiment: Cytotoxicity against human HepG2 cells after 1 hr by MTS reduction assay in absence of serum; type: cell-based; conditions: HepG2, 1 h
[6] = Half life in mouse liver microsomes; type: ADME
Acinetobacter baumannii [7] = experiment: Inhibition of NDH1-mediated O2 consumption in Acinetobacter baumannii membranes at 50 uM in presence of NADH and ascorbate/TMPD; type: cell membranes
Acinetobacter baumannii [8] = experiment: Inhibition of NDH1-mediated O2 consumption in Acinetobacter baumannii membranes at 50 to 100 uM in presence of succinate; type: cell membranes
Acinetobacter baumannii [9] = experiment: Antimicrobial activity against Acinetobacter baumannii ATCC 17978; type: functional
Acinetobacter baumannii [10] = experiment: Antimicrobial activity against Acinetobacter baumannii BAA-1606; type: functional
Staphylococcus aureus [11] = experiment: Antimicrobial activity against Staphylococcus aureus ATCC 25923; type: functional
Staphylococcus aureus [12] = experiment: Antimicrobial activity against methicillin-resistant Staphylococcus aureus USA 300; type: functional
Escherichia coli [13] = experiment: Antimicrobial activity against Escherichia coli ATCC 25922; type: functional
Escherichia coli [14] = experiment: Antimicrobial activity against Escherichia coli ATCC 25922 in presence of 40% serum; type: functional
Klebsiella pneumoniae [15] = experiment: Antimicrobial activity against Klebsiella pneumoniae ATCC 4352; type: functional
Klebsiella pneumoniae [16] = experiment: Antimicrobial activity against Klebsiella pneumoniae ATCC 13883; type: functional
Klebsiella pneumoniae [17] = experiment: Antimicrobial activity against Klebsiella pneumoniae ATCC 13883 in presence of 40% serum; type: functional
Pseudomonas aeruginosa = experiment: Antimicrobial activity against Pseudomonas aeruginosa ATCC 10145; type: functional
[18] = Half life in human liver microsomes; type: ADME
Acinetobacter baumannii [19] = experiment: Bactericidal activity against Acinetobacter baumannii at 8 times IC50 by time-kill assay; type: functional, organism-based
Acinetobacter baumannii [20] = experiment: Inhibition of NDH1-mediated O2 consumption in Acinetobacter baumannii membranes at 50 uM in presence of NADH; type: cell membranes

Row | Molecule | IC50 [1] | IC50 [2] | Ratio IC50 [3] | MIC (Acinetobacter baumannii [4]) | IC50 [5] | IC50 (HepG2) | other results
1 | N=c1n(CCCOc2ccc(Cl)cc2Cl)c2ccccc2n1CCn1ccnc1 | 18.3 µM | 49.7 µM | 2.7 | > 100 µM | 61 µM | 137 µM | –
2 | N=c1n(CCCOc2ccc(Cl)cc2Cl)c2ccccc2n1CCN1CCCC1=O | 3.6 µM | 3.1 µM | 0.9 | > 100 µM | 99 µM | 63 µM | –
3 | CCCCn1c(=N)n(CCCOc2ccc(Cl)cc2Cl)c2ccccc21 | 3.8 µM | 1.8 µM | 0.5 | 50 µM (≈ 19.6 µg/mL) | 28 µM | 72 µM | –
4 | CCN(CC)CCn1c(N)nc2ccccc21 | 40 µM | 100 µM | 2.5 | > 100 µM | – | – | –
5 | N=c1n(CCCOc2ccc(Cl)cc2Cl)c2ccccc2n1CCN1CCOCC1 | 9.2 µM | 25.5 µM | 2.8 | > 100 µM | 76 µM | 215 µM | –
6 | Br.CCN(CC)CCn1c(=N)n(CCCOc2ccc(Cl)cc2Cl)c2ccccc21 | 0.61 µM | 2.9 µM | 3 | 13 µM | 20 µM | 83 µM | inhibition (Acinetobacter baumannii [7]): inactive; inhibition (Acinetobacter baumannii [8]): inactive; MIC (Acinetobacter baumannii [9]): 12.5 µg/mL; MIC (Acinetobacter baumannii [10]): 12.5 µg/mL; MIC (Staphylococcus aureus [11]): 11 µg/mL; MIC (Staphylococcus aureus [12]): 5 µg/mL; MIC (Escherichia coli [13]): 11 µg/mL; MIC (Escherichia coli [14]): > 22 µg/mL; MIC (Klebsiella pneumoniae [15]): 5 µg/mL; MIC (Klebsiella pneumoniae [16]): 22 µg/mL; MIC (Klebsiella pneumoniae [17]): > 22 µg/mL; MIC (Pseudomonas aeruginosa): > 22 µg/mL; half-life [6]: 13 min; half-life [18]: 9.2 min; Activity (Acinetobacter baumannii [19]): Active; inhibition (Acinetobacter baumannii [20]): Active
7 | N=c1n(CCCOc2ccc(Cl)cc2Cl)c2ccccc2n1CC(=O)N1CCN(c2ccccc2)CC1.O=C(O)C(F)(F)F | 1 µM | 0.8 µM | 0.8 | > 100 µM | 400 µM | 1300 µM | half-life [6]: 25.2 min
8 | CCCN(CCC)CCn1c(=N)n(CCCOc2ccc(Cl)cc2Cl)c2ccccc21 | 2.8 µM | 2.9 µM | 1 | 25 µM (≈ 11.6 µg/mL) | 28 µM | 49 µM | –
9 | N=c1n(CCCOc2ccc(Cl)cc2Cl)c2ccccc2n1CCc1ccccn1 | 3.2 µM | 6.6 µM | 2.1 | 100 µM (≈ 44.1 µg/mL) | 36 µM | 60 µM | –
10 | Nc1nc2ccccc2n1CCCOc1ccc(Cl)cc1Cl | 0.9 µM | 0.8 µM | 0.9 | 25 µM (≈ 8.41 µg/mL) | – | – | MIC (Acinetobacter baumannii [9]): 6.25 µg/mL (≈ 18.6 µM); MIC (Acinetobacter baumannii [10]): 6.25 µg/mL (≈ 18.6 µM)
11 | CCOCCOCCn1c(=N)n(CCCOc2ccc(Cl)cc2Cl)c2ccccc21 | 5.6 µM | 6 µM | 1.1 | > 100 µM | 62 µM | 151 µM | –
12 | CC(C)N(CCn1c(=N)n(CCCOc2ccc(Cl)cc2Cl)c2ccccc21)C(C)C | 1.7 µM | 2.5 µM | 1.5 | 13 µM (≈ 6.02 µg/mL) | 19 µM | 39 µM | –
13 | CCN(CC)CCn1c(=N)n(CC(O)COc2ccc(Cl)cc2Cl)c2ccccc21 (configuration not stated) | 1.9 µM | 5.6 µM | – | 25 µM (≈ 11.3 µg/mL) | – | – | Activity (Acinetobacter baumannii [19]): Active; inhibition (Acinetobacter baumannii [20]): Active
14 | CCN(CC)CCn1c(=N)n(CCOc2ccc(Cl)cc2Cl)c2ccccc21 | 6.9 µM | 18.3 µM | 2.7 | 100 µM (≈ 42.1 µg/mL) | – | – | Activity (Acinetobacter baumannii [19]): Active
15 | COLISTIN | – | – | – | – | – | – | MIC90 (Acinetobacter baumannii [4]): 2 µg/mL

Now from value to molecule, other results behind:

Row | IC50 [1] | IC50 [2] | Ratio IC50 [3] | MIC (Acinetobacter baumannii [4]) | Molecule | IC50 [5] | IC50 (HepG2) | other results
16 | 41 µM | 106 µM | 2.6 | > 100 µM | OC(CNCc1nc2ccccc2[nH]1)COc1ccc(Cl)cc1Cl (configuration not stated) | – | – | –
17 | 6 µM | 11.4 µM | 1.9 | > 100 µM | CCN(CC)C(=O)Cn1c(=N)n(CCCOc2ccc(Cl)cc2Cl)c2ccccc21 | 68 µM | 143 µM | –
18 | 5 µM | 47 µM | 9.4 | > 100 µM | CCN(CC)CCNc1nc2ccccc2n1CC(O)COc1ccc(Cl)cc1Cl (configuration not stated) | – | – | –
19 | 10 µM | 13 µM | 1.3 | > 100 µM | CCN(CC)CCCNc1nc2ccccc2n1CC(O)COc1ccc(Cl)cc1Cl (configuration not stated) | – | – | –
20 | 12 µM | 21 µM | 1.8 | > 100 µM | CCN(CC)CCn1c(=O)n(CC(O)COc2ccc(Cl)cc2Cl)c2ccccc21 (configuration not stated) | – | – | –
21 | 1.7 µM | 1 µM | 0.6 | 50 µM (≈ 27.4 µg/mL) | CC(C)(C)OC(=O)N1CCC(CCn2c(=N)n(CCCOc3ccc(Cl)cc3Cl)c3ccccc32)CC1 | 25 µM | 42 µM | –
22 | 6.4 µM | 8.8 µM | 1.4 | 50 µM (≈ 18.2 µg/mL) | CCn1c(=N)n(CCCOc2ccc(Cl)cc2Cl)c2ccccc21 | 24 µM | 96 µM | –
23 | 0.9 µM | 0.9 µM | 1 | 50 µM | N=c1n(CCCOc2ccc(Cl)cc2Cl)c2ccccc2n1Cc1ccc(C(F)(F)F)nc1.O=C(O)C(F)(F)F | 22 µM | 35 µM | half-life [6]: > 90 min
24 | 2.1 µM | 4.9 µM | 2.3 | 13 µM (≈ 5.63 µg/mL) | N=c1n(CCCOc2ccc(Cl)cc2Cl)c2ccccc2n1CCN1CCCC1 | 12 µM | 67 µM | –
25 | 7.8 µM | 9.6 µM | 1.2 | > 100 µM | OC(COc1ccc(Cl)cc1Cl)Cn1c(NCCCN2CCOCC2)nc2ccccc21 (configuration not stated) | – | – | –
26 | 8 µM | 20 µM | 2.5 | 50 µM (≈ 22.5 µg/mL) | CCN(CC)CCCNc1nc2ccccc2n1CCCOc1ccc(Cl)cc1Cl | – | – | –
27 | 1.9 µM | 6.1 µM | 3.2 | 100 µM (≈ 44.5 µg/mL) | Cc1noc(C)c1Cn1c(=N)n(CCCOc2ccc(Cl)cc2Cl)c2ccccc21 | 94 µM | 168 µM | –
28 | 3.6 µM | 22.4 µM | 6.2 | 50 µM (≈ 23.1 µg/mL) | N=c1n(CCCOc2ccc(Cl)cc2Cl)c2ccccc2n1CCCN1CCCCC1 | 37 µM | 83 µM | –
29 | 2.1 µM | 2.2 µM | 1.1 | 25 µM | N=c1n(CCCOc2ccc(Cl)cc2Cl)c2ccccc2n1CCCc1ccccc1.O=C(O)C(F)(F)F | 36 µM | 65 µM | half-life [6]: 48.2 min
30 | 5 µM | 9.4 µM | 1.9 | 25 µM (≈ 10.5 µg/mL) | CCN(CC)CCn1c(=N)n(CCCc2ccc(Cl)cc2Cl)c2ccccc21 | – | – | Activity (Acinetobacter baumannii [19]): Active
